Data published in the supplement of paper PMC10883282.

Tests used:
Experiment in all cases: relative viability vs DMSO control (72 h) (fraction); higher = more viable cells
KHOS-NP = tested on: KHOS-NP
In short: (§1)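 Sarcoma cell lines were grown in 384-well plates seeded toward 80–90% confluence and exposed 24 h later to serially diluted compound. After 72 h at 37 °C and 5% CO2, with 0.1% DMSO vehicle and a 5 µM positive control on the plates, ATPLite was read. Relative viability, given as percent growth averaged over up to triplicate wells, was rescaled so that 1 is full and 0 is none.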

A204 = tested on: A204
In short: as §1

HS729 = tested on: HS729
In short: as §1

HT1080 = tested on: HT1080
In short: as §1

SW1353 = tested on: SW1353
In short: as §1

MES-SA = tested on: MES-SA
In short: as §1

G401 = tested on: G401
In short: as §1

SYO-1 = tested on: SYO-1
In short: as §1

SK-LMS-1 = tested on: SK-LMS-1
In short: as §1

SW872 = tested on: SW872
In short: as §1

SW684 = tested on: SW684
In short: as §1

VA-ES-BJ = tested on: VA-ES-BJ
In short: as §1

CC(C)(C)c1nc(-c2cccc(NS(=O)(=O)c3c(F)cccc3F)c2F)c(-c2ccnc(N)n2)s1 [Dabrafenib]
Conditions	relative viability
A204, 0.00017 µM	1
A204, 0.00051 µM	1.04
A204, 0.00152 µM	1.04
A204, 0.00457 µM	1.04
A204, 0.01372 µM	1.05
A204, 0.04115 µM	0.978
A204, 0.1235 µM	0.938
A204, 0.3704 µM	0.843
A204, 1.111 µM	0.76
A204, 3.333 µM	0.69
A204, 10 µM	0.614
G401, 0.00017 µM	0.982
G401, 0.00051 µM	0.994
G401, 0.00152 µM	0.916
G401, 0.00457 µM	0.937
G401, 0.01372 µM	0.949
G401, 0.04115 µM	0.955
G401, 0.1235 µM	0.929
G401, 0.3704 µM	0.857
G401, 1.111 µM	0.768
G401, 3.333 µM	0.781
G401, 10 µM	0.814
HS729, 0.00017 µM	0.958
HS729, 0.00051 µM	0.949
HS729, 0.00152 µM	0.867
HS729, 0.00457 µM	0.85
HS729, 0.01372 µM	0.84
HS729, 0.04115 µM	0.844
HS729, 0.1235 µM	0.774
HS729, 0.3704 µM	0.659
HS729, 1.111 µM	0.63
HS729, 3.333 µM	0.683
HS729, 10 µM	0.811
HT1080, 0.00017 µM	1.05
HT1080, 0.00051 µM	1.09
HT1080, 0.00152 µM	1.01
HT1080, 0.00457 µM	1.07
HT1080, 0.01372 µM	1.05
HT1080, 0.04115 µM	1.11
HT1080, 0.1235 µM	1.13
HT1080, 0.3704 µM	0.944
HT1080, 1.111 µM	0.837
HT1080, 3.333 µM	0.886
HT1080, 10 µM	0.6761
KHOS-NP, 0.00017 µM	1.09
KHOS-NP, 0.00051 µM	1.07
KHOS-NP, 0.00152 µM	1.05
KHOS-NP, 0.00457 µM	0.995
KHOS-NP, 0.01372 µM	1.01
KHOS-NP, 0.04115 µM	1.03
KHOS-NP, 0.1235 µM	1.01
KHOS-NP, 0.3704 µM	0.901
KHOS-NP, 1.111 µM	0.743
KHOS-NP, 3.333 µM	0.522
KHOS-NP, 10 µM	0.303
MES-SA, 0.00017 µM	0.944
MES-SA, 0.00051 µM	0.921
MES-SA, 0.00152 µM	0.908
MES-SA, 0.00457 µM	0.905
MES-SA, 0.01372 µM	0.909
MES-SA, 0.04115 µM	0.883
MES-SA, 0.1235 µM	0.733
MES-SA, 0.3704 µM	0.53
MES-SA, 1.111 µM	0.504
MES-SA, 3.333 µM	0.744
MES-SA, 10 µM	0.745
SK-LMS-1, 0.00017 µM	1.07
SK-LMS-1, 0.00051 µM	1.06
SK-LMS-1, 0.00152 µM	1.05
SK-LMS-1, 0.00457 µM	1.02
SK-LMS-1, 0.01372 µM	0.964
SK-LMS-1, 0.04115 µM	0.84
SK-LMS-1, 0.1235 µM	0.7165
SK-LMS-1, 0.3704 µM	0.586
SK-LMS-1, 1.111 µM	0.607
SK-LMS-1, 3.333 µM	0.691
SK-LMS-1, 10 µM	0.557
SW684, 0.00017 µM	1.13
SW684, 0.00051 µM	1.09
SW684, 0.00152 µM	1.129
SW684, 0.00457 µM	1.18
SW684, 0.01372 µM	1.13
SW684, 0.04115 µM	1.12
SW684, 0.1235 µM	1.13
SW684, 0.3704 µM	1.025
SW684, 1.111 µM	0.953
SW684, 3.333 µM	1.09
SW684, 10 µM	1.16
SW872, 0.00017 µM	1.08
SW872, 0.00051 µM	1.01
SW872, 0.00152 µM	0.907
SW872, 0.00457 µM	0.821
SW872, 0.01372 µM	0.614
SW872, 0.04115 µM	0.558
SW872, 0.1235 µM	0.525
SW872, 0.3704 µM	0.463
SW872, 1.111 µM	0.412
SW872, 3.333 µM	0.398
SW872, 10 µM	0.334
SW1353, 0.00017 µM	1.02
SW1353, 0.00051 µM	1.01
SW1353, 0.00152 µM	0.957
SW1353, 0.00457 µM	0.959
SW1353, 0.01372 µM	0.9603
SW1353, 0.04115 µM	0.936
SW1353, 0.1235 µM	0.898
SW1353, 0.3704 µM	0.875
SW1353, 1.111 µM	0.859
SW1353, 3.333 µM	0.89
SW1353, 10 µM	0.988
SYO-1, 0.00017 µM	0.985
SYO-1, 0.00051 µM	0.9278
SYO-1, 0.00152 µM	0.926
SYO-1, 0.00457 µM	0.911
SYO-1, 0.01372 µM	0.92
SYO-1, 0.04115 µM	0.919
SYO-1, 0.1235 µM	0.898
SYO-1, 0.3704 µM	0.939
SYO-1, 1.111 µM	0.857
SYO-1, 3.333 µM	0.871
SYO-1, 10 µM	0.816
VA-ES-BJ, 0.00017 µM	1.02
VA-ES-BJ, 0.00051 µM	1.02
VA-ES-BJ, 0.00152 µM	1.06
VA-ES-BJ, 0.00457 µM	1.05
VA-ES-BJ, 0.01372 µM	1.07
VA-ES-BJ, 0.04115 µM	1.02
VA-ES-BJ, 0.1235 µM	1.01
VA-ES-BJ, 0.3704 µM	0.82
VA-ES-BJ, 1.111 µM	0.646
VA-ES-BJ, 3.333 µM	0.654
VA-ES-BJ, 10 µM	0.5821

Cn1ncnc1[C@H]1c2n[nH]c(=O)c3cc(F)cc(c23)N[C@@H]1c1ccc(F)cc1 [Talazoparib]
Conditions	relative viability
A204, 0.00017 µM	0.9664
A204, 0.00051 µM	0.987
A204, 0.00152 µM	0.963
A204, 0.00457 µM	0.932
A204, 0.01372 µM	0.906
A204, 0.04115 µM	0.846
A204, 0.1235 µM	0.715
A204, 0.3704 µM	0.674
A204, 1.111 µM	0.576
A204, 3.333 µM	0.519
A204, 10 µM	0.399
G401, 0.00017 µM	0.95
G401, 0.00051 µM	1.02
G401, 0.00152 µM	0.935
G401, 0.00457 µM	0.937
G401, 0.01372 µM	0.881
G401, 0.04115 µM	0.813
G401, 0.1235 µM	0.764
G401, 0.3704 µM	0.716
G401, 1.111 µM	0.663
G401, 3.333 µM	0.613
G401, 10 µM	0.555
HS729, 0.00017 µM	1.05
HS729, 0.00051 µM	1.05
HS729, 0.00152 µM	1.03
HS729, 0.00457 µM	1.02
HS729, 0.01372 µM	1.02
HS729, 0.04115 µM	1.03
HS729, 0.1235 µM	0.961
HS729, 0.3704 µM	0.949
HS729, 1.111 µM	0.895
HS729, 3.333 µM	0.8536
HS729, 10 µM	0.812
HT1080, 0.00017 µM	1.06
HT1080, 0.00051 µM	1.05
HT1080, 0.00152 µM	1.05
HT1080, 0.00457 µM	1.037
HT1080, 0.01372 µM	1
HT1080, 0.04115 µM	0.955
HT1080, 0.1235 µM	0.8497
HT1080, 0.3704 µM	0.797
HT1080, 1.111 µM	0.662
HT1080, 3.333 µM	0.577
HT1080, 10 µM	0.554
KHOS-NP, 0.00017 µM	1.02
KHOS-NP, 0.00051 µM	1.04
KHOS-NP, 0.00152 µM	1.03
KHOS-NP, 0.00457 µM	1.04
KHOS-NP, 0.01372 µM	1.02
KHOS-NP, 0.04115 µM	1.01
KHOS-NP, 0.1235 µM	1
KHOS-NP, 0.3704 µM	0.968
KHOS-NP, 1.111 µM	0.837
KHOS-NP, 3.333 µM	0.675
KHOS-NP, 10 µM	0.607
MES-SA, 0.00017 µM	0.972
MES-SA, 0.00051 µM	0.975
MES-SA, 0.00152 µM	0.945
MES-SA, 0.00457 µM	0.901
MES-SA, 0.01372 µM	0.768
MES-SA, 0.04115 µM	0.678
MES-SA, 0.1235 µM	0.555
MES-SA, 0.3704 µM	0.478
MES-SA, 1.111 µM	0.392
MES-SA, 3.333 µM	0.351
MES-SA, 10 µM	0.314
SK-LMS-1, 0.00017 µM	1.01
SK-LMS-1, 0.00051 µM	1.05
SK-LMS-1, 0.00152 µM	0.999
SK-LMS-1, 0.00457 µM	0.999
SK-LMS-1, 0.01372 µM	0.982
SK-LMS-1, 0.04115 µM	0.956
SK-LMS-1, 0.1235 µM	0.9584
SK-LMS-1, 0.3704 µM	0.874
SK-LMS-1, 1.111 µM	0.833
SK-LMS-1, 3.333 µM	0.795
SK-LMS-1, 10 µM	0.778
SW684, 0.00017 µM	0.965
SW684, 0.00051 µM	1.01
SW684, 0.00152 µM	0.988
SW684, 0.00457 µM	1.05
SW684, 0.01372 µM	0.986
SW684, 0.04115 µM	0.969
SW684, 0.1235 µM	0.963
SW684, 0.3704 µM	0.932
SW684, 1.111 µM	0.893
SW684, 3.333 µM	0.875
SW684, 10 µM	0.865
SW872, 0.00017 µM	1.02
SW872, 0.00051 µM	1.04
SW872, 0.00152 µM	1.04
SW872, 0.00457 µM	1.01
SW872, 0.01372 µM	0.99
SW872, 0.04115 µM	0.971
SW872, 0.1235 µM	0.905
SW872, 0.3704 µM	0.799
SW872, 1.111 µM	0.628
SW872, 3.333 µM	0.441
SW872, 10 µM	0.34
SW1353, 0.00017 µM	1.06
SW1353, 0.00051 µM	1.09
SW1353, 0.00152 µM	1.07
SW1353, 0.00457 µM	1.03
SW1353, 0.01372 µM	0.999
SW1353, 0.04115 µM	0.919
SW1353, 0.1235 µM	0.889
SW1353, 0.3704 µM	0.814
SW1353, 1.111 µM	0.753
SW1353, 3.333 µM	0.679
SW1353, 10 µM	0.633
SYO-1, 0.00017 µM	0.974
SYO-1, 0.00051 µM	0.961
SYO-1, 0.00152 µM	0.885
SYO-1, 0.00457 µM	0.743
SYO-1, 0.01372 µM	0.582
SYO-1, 0.04115 µM	0.466
SYO-1, 0.1235 µM	0.336
SYO-1, 0.3704 µM	0.193
SYO-1, 1.111 µM	0.081
SYO-1, 3.333 µM	0.0279
SYO-1, 10 µM	0.0191
VA-ES-BJ, 0.00017 µM	1.01
VA-ES-BJ, 0.00051 µM	1.01
VA-ES-BJ, 0.00152 µM	1.01
VA-ES-BJ, 0.00457 µM	0.955
VA-ES-BJ, 0.01372 µM	0.926
VA-ES-BJ, 0.04115 µM	0.849
VA-ES-BJ, 0.1235 µM	0.738
VA-ES-BJ, 0.3704 µM	0.601
VA-ES-BJ, 1.111 µM	0.406
VA-ES-BJ, 3.333 µM	0.225
VA-ES-BJ, 10 µM	0.163
